The values that follow are results of earlier work, collected in patent US7939518B2, “Method of treating post-surgical acute pain” (Aaipharma Inc., priority 2008, dated 2011).

The data set has as its system cyclo-oxygenase.

`O=C(O)Cc1ccccc1Nc1c(Cl)cccc1Cl` [Diclofenac]: the “Concentrations at which cyclo-oxygenase is inhibited” value is “micromolar concentrations”.
